In US10294202B2, “Pyrrolidinones as herbicides” (FMC Corporation, priority 2013, dated 2019):

How the values were obtained:
sedge, umbrella = assay: Test B flooded paddy test; type: in vivo, Cyperus difformis; conditions: Flood, scale of 0 to 100 where 0 is no effect and 100 is complete control
In short: (§1)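 Treatment was made at the 2-leaf stage by dosing the standing floodwater, kept 3 cm above soil level for the whole test. Greenhouse exposure lasted 13 to 15 days. Response is a visual percent rating relative to controls, where a dash indicates no test result.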

velvetleaf = assay: Test A pre-/postemergence herbicide test; type: in vivo, Abutilon theophrasti
In short: (§2)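 Visual 0–100 ratings (100 = complete control) made about 10 days after treatment, greenhouse-held plants compared with untreated controls. Treatments: postemergence sprays on one- to two-leaf plants (2–10 cm tall) and preemergence directed soil sprays after planting in loam–sand, chemicals formulated in non-phytotoxic solvent containing surfactant.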

corn = assay: Test A pre-/postemergence herbicide test; type: in vivo, Zea mays
In short: as §2

morningglory = assay: Test A pre-/postemergence herbicide test; type: in vivo, Ipomoea spp.
In short: as §2

rice = assay: Test B flooded paddy test; type: in vivo, Oryza sativa; conditions: Flood, scale of 0 to 100 where 0 is no effect and 100 is complete control
In short: as §1

giant foxtail = assay: Test A pre-/postemergence herbicide test; type: in vivo, Setaria faberii
In short: as §2

crabgrass, large = assay: Test A pre-/postemergence herbicide test; type: in vivo, Digitaria sanguinalis
In short: as §2

wheat = assay: Test A pre-/postemergence herbicide test; type: in vivo, Triticum aestivum
In short: as §2

pigweed = assay: Test A pre-/postemergence herbicide test; type: in vivo, Amaranthus retroflexus
In short: as §2

barnyardgrass [1] = assay: Test A pre-/postemergence herbicide test; type: in vivo, Echinochloa crus-galli
In short: as §2

barnyardgrass [2] = assay: Test B flooded paddy test; type: in vivo, Echinochloa crus-galli; conditions: Flood, scale of 0 to 100 where 0 is no effect and 100 is complete control
In short: as §1

ducksalad = assay: Test B flooded paddy test; type: in vivo, Heteranthera limosa; conditions: Flood, scale of 0 to 100 where 0 is no effect and 100 is complete control
In short: as §1

[3] = Postemergence, 125 g ai/ha, visual rating on 0 to 100 scale (0 no effect, 100 complete control), approx. 10 days
[4] = Preemergence, 125 g ai/ha, 0 to 100 scale where 0 is no effect and 100 is complete control
[5] = preemergence, 500 g ai/ha, 0 to 100 scale, 0 is no effect and 100 is complete control
[6] = Postemergence, 125 g ai/ha, 0 to 100 scale, 0 is no effect, 100 is complete control
[7] = Postemergence, 500 g ai/ha, 0 to 100 scale (0 no effect, 100 complete control)
[8] = Postemergence, 125 g ai/ha, 0 to 100 scale, 0 no effect, 100 complete control
[9] = Preemergence, 125 g ai/ha, visual rating on 0 to 100 scale (0 no effect, 100 complete control)
[10] = preemergence, 500 g ai/ha, 0 to 100 scale
[11] = Postemergence, 1000 g ai/ha, 0 to 100 scale (0 no effect, 100 complete control)
[12] = Preemergence, 1000 g ai/ha, visual rating on 0 to 100 scale (0 no effect, 100 complete control), approx. 10 days

O=C1NCC(c2ccc(Cl)c(C(F)(F)F)c2)C1C(=O)Nc1ccccc1F (racemic) [Compound 267] was tested, and the “Plant response rating, Sedge, Umbrella” value (sedge, umbrella; 1000 g ai/ha) was 0, the “Plant response rating, Velvetleaf” value (velvetleaf; [3]) was 30 and the “Plant response rating, Velvetleaf” value (velvetleaf; [4]) was 0. For the same molecule, the “Plant response rating, Velvetleaf” value (velvetleaf; [5]) was 0, the “Plant response rating, Corn” value (corn; [6]) was 40 and the “Plant response rating, Corn” value (corn; [7]) was 70. For the same molecule, the “Plant response rating, Corn” value (corn; [4]) was 0, the “Plant response rating, Corn” value (corn; [5]) was 0 and the “Plant response rating, Morningglory” value (morningglory; [3]) was 0. For the same molecule, the “Plant response rating, Morningglory” value (morningglory; [7]) was 60, the “Plant response rating, Morningglory” value (morningglory; [4]) was 0 and the “Plant response rating, Morningglory” value (morningglory; [5]) was 0. For the same molecule, the “Plant response rating, Rice” value (rice; 1000 g ai/ha) was 15, the “Plant response rating, Foxtail, Giant” value (giant foxtail; [6]) was 70 and the “Plant response rating, Foxtail, Giant” value (giant foxtail; [7]) was 80. For the same molecule, the “Plant response rating, Foxtail, Giant” value (giant foxtail; [4]) was 80, the “Plant response rating, Foxtail, Giant” value (giant foxtail; [5]) was 90 and the “Plant response rating, Crabgrass, Large” value (crabgrass, large; [6]) was 80. For the same molecule, the “Plant response rating, Crabgrass, Large” value (crabgrass, large; [7]) was 90, the “Plant response rating, Crabgrass, Large” value (crabgrass, large; [4]) was 90 and the “Plant response rating, Crabgrass, Large” value (crabgrass, large; [5]) was 90. For the same molecule, the “Plant response rating, Wheat” value (wheat; [3]) was 0, the “Plant response rating, Wheat” value (wheat; [7]) was 0 and the “Plant response rating, Wheat” value (wheat; [4]) was 0. For the same molecule, the “Plant response rating, Wheat” value (wheat; [5]) was 0, the “Plant response rating, Pigweed” value (pigweed; [3]) was 0 and the “Plant response rating, Pigweed” value (pigweed; [7]) was 60. For the same molecule, the “Plant response rating, Pigweed” value (pigweed; [4]) was 0, the “Plant response rating, Pigweed” value (pigweed; [5]) was 50 and the “Plant response rating, Barnyardgrass” value (barnyardgrass [1]; [6]) was 70. The “Plant response rating, Barnyardgrass” value (barnyardgrass [1]; [7]) was 80, the “Plant response rating, Barnyardgrass” value (barnyardgrass [1]; [4]) was 70 and the “Plant response rating, Barnyardgrass” value (barnyardgrass [1]; [5]) was 80. For the same molecule, the “Plant response rating, Barnyardgrass” value (barnyardgrass [2]; 1000 g ai/ha) was 20 and the “Plant response rating, Ducksalad” value (ducksalad; 1000 g ai/ha) was 100.
In the case of Cc1cccc(C2CN(C(=O)OC(C)(C)C)C(=O)C2C(=O)Nc2ccccc2F)c1 (stereo not shown) [Compound 37], the “Plant response rating, Sedge, Umbrella” value (sedge, umbrella; 250 g ai/ha) was 20, the “Plant response rating, Velvetleaf” value (velvetleaf; [8]) was 0 and the “Plant response rating, Velvetleaf” value (velvetleaf; [7]) was 0. The “Velvetleaf plant response rating” value (velvetleaf; [9]) was 0, the “Plant response rating, Velvetleaf” value (velvetleaf; [10]) was 0 and the “Plant response rating, Corn” value (corn; [8]) was 0. For the same molecule, the “Plant response rating, Corn” value (corn; [7]) was 0, the “Corn plant response rating” value (corn; [9]) was 0 and the “Plant response rating, Corn” value (corn; [10]) was 0. The “Plant response rating, Morningglory” value (morningglory; [8]) was 0, the “Plant response rating, Morningglory” value (morningglory; [7]) was 0 and the “Morningglory plant response rating” value (morningglory; [9]) was 0. For the same molecule, the “Plant response rating, Morningglory” value (morningglory; [10]) was 0, the “Plant response rating, Rice” value (rice; 250 g ai/ha) was 0 and the “Plant response rating, Foxtail, Giant” value (giant foxtail; [8]) was 0. For the same molecule, the “Plant response rating, Foxtail, Giant” value (giant foxtail; [7]) was 20, the “Foxtail, Giant plant response rating” value (giant foxtail; [9]) was 0 and the “Plant response rating, Foxtail, Giant” value (giant foxtail; [10]) was 20. The “Plant response rating, Crabgrass, Large” value (crabgrass, large; [8]) was 0, the “Plant response rating, Crabgrass, Large” value (crabgrass, large; [7]) was 20 and the “Crabgrass, Large plant response rating” value (crabgrass, large; [9]) was 0. The “Plant response rating, Crabgrass, Large” value (crabgrass, large; [10]) was 80, the “Plant response rating, Wheat” value (wheat; [8]) was 0 and the “Plant response rating, Wheat” value (wheat; [7]) was 0. For the same molecule, the “Wheat plant response rating” value (wheat; [9]) was 0, the “Plant response rating, Wheat” value (wheat; [10]) was 30 and the “Plant response rating, Pigweed” value (pigweed; [8]) was 0. For the same molecule, the “Plant response rating, Pigweed” value (pigweed; [7]) was 0, the “Pigweed plant response rating” value (pigweed; [9]) was 0 and the “Plant response rating, Pigweed” value (pigweed; [10]) was 0. The “Plant response rating, Barnyardgrass” value (barnyardgrass [1]; [8]) was 0, the “Plant response rating, Barnyardgrass” value (barnyardgrass [1]; [7]) was 50 and the “Barnyardgrass plant response rating” value (barnyardgrass [1]; [9]) was 0. The “Plant response rating, Barnyardgrass” value (barnyardgrass [1]; preemergence, 500 g ai/ha, 0 to 100 scale (0 no effect, 100 complete control)) was 80, the “Plant response rating, Barnyardgrass” value (barnyardgrass [2]; 250 g ai/ha) was 0 and the “Plant response rating, Ducksalad” value (ducksalad; 250 g ai/ha) was 0.
O=C1NCC(c2ccc(Cl)c(Cl)c2)C1C(=O)Nc1ccccc1[N+](=O)[O-] (stereo not shown) [Compound 39] was tested, and the “Plant response rating, Sedge, Umbrella” value (sedge, umbrella; 250 g ai/ha) was 0, the “Plant response rating, Velvetleaf” value (velvetleaf; [11]) was 10 and the “Plant response rating, Velvetleaf” value (velvetleaf; [12]) was 0. The “Plant response rating, Corn” value (corn; [11]) was 0, the “Plant response rating, Corn” value (corn; [12]) was 0 and the “Plant response rating, Morningglory” value (morningglory; [11]) was 10. For the same molecule, the “Plant response rating, Morningglory” value (morningglory; [12]) was 0, the “Plant response rating, Rice” value (rice; 250 g ai/ha) was 0 and the “Plant response rating, Foxtail, Giant” value (giant foxtail; [11]) was 70. For the same molecule, the “Plant response rating, Foxtail, Giant” value (giant foxtail; [12]) was 80, the “Plant response rating, Crabgrass, Large” value (crabgrass, large; [11]) was 80 and the “Plant response rating, Crabgrass, Large” value (crabgrass, large; [12]) was 90. For the same molecule, the “Plant response rating, Wheat” value (wheat; [11]) was 40, the “Plant response rating, Wheat” value (wheat; [12]) was 0 and the “Plant response rating, Pigweed” value (pigweed; [11]) was 50. For the same molecule, the “Plant response rating, Pigweed” value (pigweed; [12]) was 0, the “Plant response rating, Barnyardgrass” value (barnyardgrass [1]; [11]) was 50 and the “Plant response rating, Barnyardgrass” value (barnyardgrass [1]; [12]) was 70. For the same molecule, the “Plant response rating, Barnyardgrass” value (barnyardgrass [2]; 250 g ai/ha) was 0 and the “Plant response rating, Ducksalad” value (ducksalad; 250 g ai/ha) was 0.
